What was measured:
[1] = compound: CCN(CCO)CCCOc1ccc2c(Nc3cc(CC(=O)Nc4cccc(F)c4)[nH]n3)ncnc2c1 [AZD2811]; conditions: max 1 µM
Method in brief: (§1)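 Viability was measured with CellTiter-Glo 2.0 luminescence after 72 hours of dosing at a final DMSO of typically 0.2%, and scaled between blank-well and DMSO-well means. Beforehand, cancer cell lines sat 24 hours at 37°C and 5% CO2 in 1536-well plates in 7.5 μl DMEM/F12 or RPMI with 10% FBS. A non-linear mixed effects model fitted two-parameter logistic curves to the dose responses. The single-agent IC50 comes from these fits.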

[2] = compound: Cc1c2c(nn1C)CSCc1cc(n(C)n1)CSc1cc(c3ccccc3c1)OCCCc1c(C(=O)O)n(C)c3c-2c(Cl)ccc13 [AZD5991]; conditions: max 1 µM
Method in brief: as §1

[3] = compound: COc1cc2ncnc(Nc3ccc(F)c(Cl)c3)c2cc1OCCCN1CCOCC1 [Gefitinib]; conditions: max 10 µM
Method in brief: as §1

[4] = compound: COc1nnc2ccc(N3CCC(c4ccc(OCCN5CCN(C)C(=O)[C@H]5C)cc4)CC3)nn12 [AZD5153]; conditions: max 1 µM
Method in brief: as §1

[5] = compound: CCc1c2c(nc3ccc(O)cc13)-c1cc3c(c(=O)n1C2)COC(=O)[C@]3(O)CC [SN-38]; conditions: max 0.3 µM
Method in brief: as §1

[6] = compound: CS(=O)(=O)CCNCc1ccc(-c2ccc3ncnc(Nc4ccc(OCc5cccc(F)c5)c(Cl)c4)c3c2)o1 [Lapatinib]; conditions: max 10 µM
Method in brief: as §1

[7] = compound: COc1cccc(OCCCN)c1-c1cc(Nc2cnc(C#N)cn2)n[nH]1 [Prexasertib]; conditions: max 1 µM
Method in brief: as §1

[8] = compound: COc1cccc2c1C(=O)c1c(O)c3c(c(O)c1C2=O)C[C@@](O)(C(=O)CO)C[C@@H]3O[C@H]1C[C@H](N)[C@H](O)[C@H](C)O1 [Doxorubicin]; conditions: max 1 µM
Method in brief: as §1

[9] = compound: Cc1cc2ncnn2cc1Nc1ncc2c(n1)n(C1CCOCC1)c(=O)n2C [AZD7648]; conditions: max 10 µM
Method in brief: as §1

[10] = compound: CC1(C)CCC(CN2CCN(c3ccc(C(=O)NS(=O)(=O)c4ccc(NCC5CCOCC5)c([N+](=O)[O-])c4)c(Oc4cnc5[nH]ccc5c4)c3)CC2)=C(c2ccc(Cl)cc2)C1 [Venetoclax]; conditions: max 1 µM
Method in brief: as §1

[11] = compound: CC1=C(C(=CC=C1)Cl)NC(=O)C2=CN=C(S2)NC3=CC(=NC(=N3)C)N4CCN(CC4)CCO [Dasatinib]; conditions: max 2 µM
Method in brief: as §1

[12] = compound: C[C@@H](Oc1cc(-c2cnn(C3CCNCC3)c2)cnc1N)c1c(Cl)ccc(F)c1Cl [Crizotinib]; conditions: max 10 µM
Method in brief: as §1

[13] = compound: C1CN(CCC1(C(=O)N[C@@H](CCO)C2=CC=C(C=C2)Cl)N)C3=NC=NC4=C3C=CN4 [Capivasertib]; conditions: max 10 µM
Method in brief: as §1

[14] = compound: C[C@@H]1COCCN1C2=NC(=NC(=C2)C3(CC3)[S@](=N)(=O)C)C4=C5C=CNC5=NC=C4 [AZD6738]; conditions: max 10 µM
Method in brief: as §1

[15] = compound: Cc1nc(-c2cn3c(n2)-c2ccc(-c4cnn(C(C)(C)C(N)=O)c4)cc2OCC3)n(C(C)C)n1 [Taselisib]; conditions: max 10 µM
Method in brief: as §1

[16] = compound: CN(CC[C@H](CSC1=CC=CC=C1)NC2=C(C=C(C=C2)S(=O)(=O)NC(=O)C3=CC=C(C=C3)N4CCC(CC4)[C@H](C5=CC=CC=C5C6=CC=C(C=C6)Cl)O)S(=O)(=O)C(F)(F)F)CCO [AZD4320]; conditions: max 1 µM
Method in brief: as §1

[17] = compound: CN(C)CCCOc1ccc(-c2ccc3ncc4c(c3c2)n(C2CCOCC2)c(=O)n4C)cn1 [AZD0156]; conditions: max 3 µM
Method in brief: as §1

[18] = compound: C[C@@H](c1ccc2nccn2c1)n1nnc2ncc(-c3cnn(C)c3)nc21 [Savolitinib]; conditions: max 1 µM
Method in brief: as §1

[19] = compound: Cn1cnc2c(F)c(Nc3ccc(Br)cc3Cl)c(C(=O)NOCCO)cc21 [Selumetinib]; conditions: max 10 µM
Method in brief: as §1

[20] = compound: COc1cc(Nc2ncc3c(n2)-c2ccc(Cl)cc2C(c2c(F)cccc2OC)=NC3)ccc1C(=O)O [Alisertib]; conditions: max 10 µM
Method in brief: as §1

[21] = compound: CC1=CN2[C@@H](C1)C=NC3=CC(=C(C=C3C2=O)OC)OCCCCCOC4=C(C=C5C(=C4)N=C[C@@H]6CC(=CN6C5=O)C)OC [SG3199]; conditions: max 0.001 µM
Method in brief: as §1

[22] = compound: CC(C)n1c(=O)n(C)c2cnc3cc(F)c(-c4ccc(OCCCN5CCCCC5)nc4)cc3c21 [AZD1390]; conditions: max 0.3 µM
Method in brief: as §1

[23] = compound: CC(=O)Nc1cccc(-n2c(=O)n(C3CC3)c(=O)c3c(Nc4ccc(I)cc4F)n(C)c(=O)c(C)c32)c1 [Trametinib]; conditions: max 1 µM
Method in brief: as §1

[24] = compound: CC(=O)c1c(C)c2cnc(Nc3ccc(N4CCNCC4)cn3)nc2n(C2CCCC2)c1=O [Palbociclib]; conditions: max 10 µM
Method in brief: as §1

[25] = compound: C[C@@H](Nc1cc(F)cc(F)c1)c1cc(C(=O)N(C)C)cc2c(=O)cc(N3CCOCC3)oc12 [AZD8186]; conditions: max 3 µM
Method in brief: as §1

[26] = compound: C=CCn1c(=O)c2cnc(Nc3ccc(N4CCN(C)CC4)cc3)nc2n1-c1cccc(C(C)(C)O)n1 [AZD1775]; conditions: max 3 µM
Method in brief: as §1

[27] = compound: O=C(c1cc(Cc2n[nH]c(=O)c3ccccc23)ccc1F)N1CCN(C(=O)C2CC2)CC1 [Olaparib]; conditions: max 10 µM
Method in brief: as §1

Cell Line	IC50, cell viability 72 h [1]	IC50, cell viability 72 h [2]	IC50, cell viability 72 h [3]	IC50, cell viability 72 h [4]	IC50, cell viability 72 h [5]	IC50, cell viability 72 h [6]	IC50, cell viability 72 h [7]	IC50, cell viability 72 h [8]	IC50, cell viability 72 h [9]	IC50, cell viability 72 h [10]	IC50, cell viability 72 h [11]	IC50, cell viability 72 h [12]	IC50, cell viability 72 h [13]	IC50, cell viability 72 h [14]	IC50, cell viability 72 h [15]	IC50, cell viability 72 h [16]	IC50, cell viability 72 h [17]	IC50, cell viability 72 h [18]	IC50, cell viability 72 h [19]	IC50, cell viability 72 h [20]	IC50, cell viability 72 h [21]	IC50, cell viability 72 h [22]	IC50, cell viability 72 h [23]	IC50, cell viability 72 h [24]	IC50, cell viability 72 h [25]	IC50, cell viability 72 h [26]	IC50, cell viability 72 h [27]
SK-MES-1 (Squamous Cell Lung Carcinoma)	> 1000 nM	> 1000 nM	> 10000 nM	> 1000 nM	30.5 nM	6630 nM	60.5 nM	> 1000 nM	> 10000 nM	> 1000 nM	> 2000 nM	> 10000 nM	> 10000 nM	8000 nM	4880 nM	> 1000 nM	> 3000 nM	> 1000 nM	> 10000 nM	> 10000 nM	> 1 nM	> 300 nM	178 nM	> 10000 nM	> 3000 nM	1360 nM	> 10000 nM
SK-MG-1 (Low Grade Glioma)	> 1000 nM	> 1000 nM	> 10000 nM	> 1000 nM	60 nM	> 10000 nM	82.8 nM	> 1000 nM	> 10000 nM	> 1000 nM	886 nM	> 10000 nM	> 10000 nM	> 10000 nM	1620 nM	> 1000 nM	> 3000 nM	> 1000 nM	> 10000 nM	> 10000 nM	> 1 nM	> 300 nM	> 1000 nM	> 10000 nM	2730 nM	> 3000 nM	> 10000 nM
TT2609-C02 (Thyroid Gland Carcinoma)	> 1000 nM	> 1000 nM	> 10000 nM	> 1000 nM	69 nM	> 10000 nM	> 1000 nM	> 1000 nM	> 10000 nM	> 1000 nM	> 2000 nM	> 10000 nM	> 10000 nM	> 10000 nM	> 10000 nM	> 1000 nM	> 3000 nM	> 1000 nM	6350 nM	> 10000 nM	> 1 nM	> 300 nM	280 nM	> 10000 nM	> 3000 nM	> 3000 nM	> 10000 nM

Reference: the supplement of paper PMC11061612
